Data set [1] relates to mouse Scavenger Receptor Class B, Number 1 (SRB-1) transcript. Kind of data set: Isis No. 353382 activity in MHT cells with or without bioactive lipid pre-treatment (SRB-1 mRNA, real-time PCR). The format is cell-based. An excerpt: Antisense oligonucleotides were synthesized using standard solid phase oligonucleotide synthetic methods. Isis No. 353382 targets the mouse Scavenger Receptor Class B, Number 1 (SRB-1) transcript (GENBANK accession number NM_016741.1, SEQ ID NO: 1). The sequence of Isis No. 353382 is 5′-[…]-3′ (SEQ ID NO: 2). It is a 5-10-5 MOE gapmer, wherein the five nucleosides at the 5′-end and the five nucleosides at the 3′-end comprise 2′-methoxyethyl (MOE) modifications, and the ten middle nucleosides are 2′-deoxynucleosides. All internucleoside linkages are phosphorothioate linkages. The cytosine bases are 5-methylcytosines.
In order to test the effect of pre-treatment with bioactive lipids on Isis No. 353382 activity in vitro, mouse hepatocellular SV40 large T-antigen (MHT) carcinoma cells were treated with 200 nM myriocin or 3 μM FTY-720 was added 2 hours before Isis No. 353382 at the concentrations shown in Tables 1 and 2 below. Cells were lysed 24 hours following oligonucleotide addition, and total RNA was purified. SRB-1 mRNA levels were determined using real-time PCR and RIBOGREEN® RNA quantification reagent (Molecular Probes, Inc. Eugene, Oreg.) according to standard protocols.

Data set [2] deals with mouse Metastasis associated lung adenocarcinoma transcript 1 (Malat-1). Nature of the data set: In vivo activity of Isis No. 556062 with and without FTY-720 pre-treatment (Malat-1 RNA in tissues, Example 2). As to conditions: mice. An excerpt: Isis No. 556062 targets the mouse Metastasis associated lung adenocarcinoma transcript 1 (Malat-1, GENBANK accession number NR_002847.2, SEQ ID NO: 3). The sequence of Isis No. 556062 is 5′-GGCTTAATGCAGCATT-3′ (SEQ ID NO: 4). It is a 3-10-3 (S)-cEt gapmer, wherein the three nucleosides at the 5′-end and the three nucleosides at the 3′-end comprise 2′-O—CH(CH3)-4′ modifications, and the ten middle nucleosides are 2′-deoxynucleosides. All internucleoside linkages are phosphorothioate linkages. The cytosine bases are 5-methylcytosines.
Malat-1 RNA levels were determined using real-time PCR and RIBOGREEN® RNA quantification reagent (Molecular Probes, Inc. Eugene, OR) according to standard protocols. Malat-1 RNA levels were determined relative to total RNA (using Ribogreen), prior to normalization to PBS-treated control. The results are presented in Table 16 as average Malat-1 RNA levels for each treatment group. Results for groups that received Isis No. 556062 alone are relative the group that received only PBS, and results for groups that received Isis No. 556062 and FTY-720 are relative to the group that received 3 mg/kg FTY-720 and PBS in place of Isis No. 556062.

For data set [3] the test system is unchanged. Nature of the data set: In vivo dose response of Isis No. 556062 with and without FTY-720 pre-treatment (Malat-1 RNA, Example 3). As to conditions: mice; liver; 1 mg/kg FTY-720 i.p. once a day for 11 days; Isis No. 556062 subcutaneous on day 10. The protocol:
Each treatment group consisted of 4 animals.
Malat-1 RNA levels were determined as described in Example 2. The results are presented in Table 18 as average Malat-1 RNA levels for each treatment group. Results for groups that received Isis No. 556062 alone are relative the group that received only PBS, and results for groups that received Isis No. 556062 and 1 mg/kg FTY-720 are relative to the group that received 1 mg/kg FTY-720 and PBS in place of Isis No. 556062.

Consider four compounds from US20170283804A1, “ANTISENSE COMPOUNDS AND USES THEREOF” (Ionis Pharmaceuticals, Inc., priority 2014, published 2017).

Oligonucleotides are written 5' to 3', each unit as a sugar letter and its base; * is a phosphorothioate linkage, no mark a phosphodiester; rarer units and linkages stand in square brackets, end groups in braces. Plain capitals give the bases only. e = 2'-O-(2-methoxyethyl) (MOE); k = constrained ethyl (cEt); [5mC] = 5-methylcytosine; d = 2'-deoxy (DNA)

Regarding `CCCCCCC(=O)CCCCCC/C=C/C[C@@H](O)[C@H](O)[C@@](N)(CO)C(=O)O` [myriocin, reference compound], the “Effect of pre-treatment on the effect of Isis No. 353382 in vitro” value in data set [1] (200 nM myriocin 2 hours before Isis No. 353382) is listed as “potentiated the effect of Isis No. 353382”.
For “Isis No. 556062: 3-10-3 (S)-cEt gapmer 5′-GGCTTAATGCAGCATT-3′ (SEQ ID NO: 4), all phosphorothioate linkages, 5-methylcytosines; targets mouse Malat-1 (antisense kG*kG*k[5mC]*dT*dT*dA*dA*dT*dG*d[5mC]*dA*dG*d[5mC]*kA*kT*kT)”, the “Average Malat-1 RNA” value is on record as 89 % control in data set [2] (Fat, 2 mg/kg Isis No. 556062 i.p., 0 mg/kg FTY-720); 54 % control in data set [2] (Fat, 2 mg/kg Isis No. 556062 i.p., 0.3 mg/kg FTY-720 i.p. daily); 69 % control in data set [2] (Fat, 2 mg/kg Isis No. 556062 i.p., 1 mg/kg FTY-720 i.p. daily); 45 % control in data set [2] (Fat, 2 mg/kg Isis No. 556062 i.p., 3 mg/kg FTY-720 i.p. daily); 63 % control in data set [2] (Fat, 10 mg/kg Isis No. 556062 i.p., 0 mg/kg FTY-720); 39 % control in data set [2] (Fat, 10 mg/kg Isis No. 556062 i.p., 0.3 mg/kg FTY-720 i.p. daily). In addition, the “Average Malat-1 RNA” value amounted to 32 % control in data set [2] (Fat, 10 mg/kg Isis No. 556062 i.p., 1 mg/kg FTY-720 i.p. daily); 39 % control in data set [2] (Fat, 10 mg/kg Isis No. 556062 i.p., 3 mg/kg FTY-720 i.p. daily); 36 % control in data set [2] (Liver, 2 mg/kg Isis No. 556062 i.p., 0 mg/kg FTY-720); 30 % control in data set [2] (Liver, 2 mg/kg Isis No. 556062 i.p., 0.3 mg/kg FTY-720 i.p. daily); 23 % control in data set [2] (Liver, 2 mg/kg Isis No. 556062 i.p., 1 mg/kg FTY-720 i.p. daily); 24 % control in data set [2] (Liver, 2 mg/kg Isis No. 556062 i.p., 3 mg/kg FTY-720 i.p. daily). The “Average Malat-1 RNA” value worked out at 12 % control in data set [2] (Liver, 10 mg/kg Isis No. 556062 i.p., 0 mg/kg FTY-720); 9 % control in data set [2] (Liver, 10 mg/kg Isis No. 556062 i.p., 0.3 mg/kg FTY-720 i.p. daily); 7 % control in data set [2] (Liver, 10 mg/kg Isis No. 556062 i.p., 1 mg/kg FTY-720 i.p. daily); 10 % control in data set [2] (Liver, 10 mg/kg Isis No. 556062 i.p., 3 mg/kg FTY-720 i.p. daily).
As to `CCCCCCCCc1ccc(CCC(N)(CO)CO)cc1` [FTY-720, 2-amino-2-[2-(4-octylphenyl)ethyl]propane-1,3-diol, reference compound], in data set [1] (3 μM FTY-720 2 hours before Isis No. 353382), the “Effect of pre-treatment on the effect of Isis No. 353382 in vitro” value was “potentiated the effect of Isis No. 353382”. Moreover, the “Effect of pre-treatment on the effect of Isis No. 556062 in vivo” value is given as “potentiated the effect of Isis No. 556062” in data set [3]; “potentiated the effect of Isis No. 556062” in data set [2] (liver and fat, FTY-720 0.3, 1 or 3 mg/kg i.p. once a day for 11 days, Isis No. 556062 i.p. on day 10).
Regarding “Isis No. 353382: 5-10-5 MOE gapmer 5′-GCTTCAGTCATGACTTCCTT-3′ (SEQ ID NO: 2), all phosphorothioate linkages, 5-methylcytosines; targets mouse SRB-1 transcript (antisense eG*e[5mC]*eT*eT*e[5mC]*dA*dG*dT*d[5mC]*dA*dT*dG*dA*d[5mC]*dT*eT*e[5mC]*e[5mC]*eT*eT)”, the “Average SRB-1 mRNA level in cells receiving 200 nM myriocin” value in data set [1] (0.16 nM Isis No. 353382, 200 nM myriocin added 2 hours before, 24 hours) was 73.5 % control; in data set [1] (0.64 nM Isis No. 353382, 200 nM myriocin added 2 hours before, 24 hours) it was 73.2 % control; in data set [1] (3.2 nM Isis No. 353382, 200 nM myriocin added 2 hours before, 24 hours), 46.8 % control; in data set [1] (16 nM Isis No. 353382, 200 nM myriocin added 2 hours before, 24 hours) it was 36.1 % control; in data set [1] (80 nM Isis No. 353382, 200 nM myriocin added 2 hours before, 24 hours), 27.2 % control; in data set [1] (400 nM Isis No. 353382, 200 nM myriocin added 2 hours before, 24 hours), 23.5 % control. Moreover, the “Average SRB-1 mRNA level in cells receiving 200 nM myriocin” value in data set [1] (2,000 nM Isis No. 353382, 200 nM myriocin added 2 hours before, 24 hours) is listed as 19.6 % control; in data set [1] (10,000 nM Isis No. 353382, 200 nM myriocin added 2 hours before, 24 hours), 15.6 % control. The “Average SRB-1 mRNA level in cells receiving 3 μM FTY-720” value in data set [1] (0.16 nM Isis No. 353382, 3 μM FTY-720 added 2 hours before, 24 hours) was 85.5 % control; in data set [1] (0.64 nM Isis No. 353382, 3 μM FTY-720 added 2 hours before, 24 hours), 77.8 % control; in data set [1] (3.2 nM Isis No. 353382, 3 μM FTY-720 added 2 hours before, 24 hours), 65.9 % control; in data set [1] (16 nM Isis No. 353382, 3 μM FTY-720 added 2 hours before, 24 hours), 46.5 % control; in data set [1] (80 nM Isis No. 353382, 3 μM FTY-720 added 2 hours before, 24 hours), 27.1 % control; in data set [1] (400 nM Isis No. 353382, 3 μM FTY-720 added 2 hours before, 24 hours) it was 23.6 % control. The “Average SRB-1 mRNA level in cells receiving 3 μM FTY-720” value in data set [1] (2,000 nM Isis No. 353382, 3 μM FTY-720 added 2 hours before, 24 hours) was determined as 16.8 % control; in data set [1] (10,000 nM Isis No. 353382, 3 μM FTY-720 added 2 hours before, 24 hours), 12.1 % control. In addition, the “Average SRB-1 mRNA level in cells receiving no pre-treatment” value in data set [1] (0.16 nM Isis No. 353382, 24 hours, no pre-treatment) is reported as 96.9 % control; in data set [1] (0.16 nM Isis No. 353382, no pre-treatment, 24 hours) it was 91.8 % control; in data set [1] (0.64 nM Isis No. 353382, 24 hours, no pre-treatment), 95.9 % control; in data set [1] (0.64 nM Isis No. 353382, no pre-treatment, 24 hours), 87.8 % control; in data set [1] (3.2 nM Isis No. 353382, 24 hours, no pre-treatment), 72.2 % control; in data set [1] (3.2 nM Isis No. 353382, no pre-treatment, 24 hours), 80.9 % control. Besides, the “Average SRB-1 mRNA level in cells receiving no pre-treatment” value is listed as 46.3 % control in data set [1] (16 nM Isis No. 353382, 24 hours, no pre-treatment); 74.3 % control in data set [1] (16 nM Isis No. 353382, no pre-treatment, 24 hours); 32.3 % control in data set [1] (80 nM Isis No. 353382, 24 hours, no pre-treatment); 53.5 % control in data set [1] (80 nM Isis No. 353382, no pre-treatment, 24 hours); 26.8 % control in data set [1] (400 nM Isis No. 353382, 24 hours, no pre-treatment); 52.2 % control in data set [1] (400 nM Isis No. 353382, no pre-treatment, 24 hours). Also, the “Average SRB-1 mRNA level in cells receiving no pre-treatment” value in data set [1] (2,000 nM Isis No. 353382, 24 hours, no pre-treatment) stood at 22.4 % control; in data set [1] (2,000 nM Isis No. 353382, no pre-treatment, 24 hours), 44.9 % control; in data set [1] (10,000 nM Isis No. 353382, 24 hours, no pre-treatment) it was 16.6 % control; in data set [1] (10,000 nM Isis No. 353382, no pre-treatment, 24 hours), 36.0 % control.
